Assay results: CN105267200A, “一种黄酮类化合物的应用” (Shanghai Institute of Organic Chemistry of CAS, priority 2014, dated 2016)

Biological target: T1, mTORC1 (Homo sapiens, UniProt P42345)
T1 construct: purchased sigma试剂有限公司 (Sigma) SRP0364
Assay: mTORC1 enzyme activity inhibition (phosphorylation of 5-FAM substrate peptide STTPGGTLFSTTPG), capillary electrophoresis with laser-induced fluorescence
Type: biochemical
Settings: mTORC1 31.1 nM, substrate peptide 2 μM, 20 min; for inhibition at 1.25 µM: compound 1.25 μM, read-out: inhibition of the catalytic activity of mTORC1

T1 sequence (P42345 1362-2549 limits assumed): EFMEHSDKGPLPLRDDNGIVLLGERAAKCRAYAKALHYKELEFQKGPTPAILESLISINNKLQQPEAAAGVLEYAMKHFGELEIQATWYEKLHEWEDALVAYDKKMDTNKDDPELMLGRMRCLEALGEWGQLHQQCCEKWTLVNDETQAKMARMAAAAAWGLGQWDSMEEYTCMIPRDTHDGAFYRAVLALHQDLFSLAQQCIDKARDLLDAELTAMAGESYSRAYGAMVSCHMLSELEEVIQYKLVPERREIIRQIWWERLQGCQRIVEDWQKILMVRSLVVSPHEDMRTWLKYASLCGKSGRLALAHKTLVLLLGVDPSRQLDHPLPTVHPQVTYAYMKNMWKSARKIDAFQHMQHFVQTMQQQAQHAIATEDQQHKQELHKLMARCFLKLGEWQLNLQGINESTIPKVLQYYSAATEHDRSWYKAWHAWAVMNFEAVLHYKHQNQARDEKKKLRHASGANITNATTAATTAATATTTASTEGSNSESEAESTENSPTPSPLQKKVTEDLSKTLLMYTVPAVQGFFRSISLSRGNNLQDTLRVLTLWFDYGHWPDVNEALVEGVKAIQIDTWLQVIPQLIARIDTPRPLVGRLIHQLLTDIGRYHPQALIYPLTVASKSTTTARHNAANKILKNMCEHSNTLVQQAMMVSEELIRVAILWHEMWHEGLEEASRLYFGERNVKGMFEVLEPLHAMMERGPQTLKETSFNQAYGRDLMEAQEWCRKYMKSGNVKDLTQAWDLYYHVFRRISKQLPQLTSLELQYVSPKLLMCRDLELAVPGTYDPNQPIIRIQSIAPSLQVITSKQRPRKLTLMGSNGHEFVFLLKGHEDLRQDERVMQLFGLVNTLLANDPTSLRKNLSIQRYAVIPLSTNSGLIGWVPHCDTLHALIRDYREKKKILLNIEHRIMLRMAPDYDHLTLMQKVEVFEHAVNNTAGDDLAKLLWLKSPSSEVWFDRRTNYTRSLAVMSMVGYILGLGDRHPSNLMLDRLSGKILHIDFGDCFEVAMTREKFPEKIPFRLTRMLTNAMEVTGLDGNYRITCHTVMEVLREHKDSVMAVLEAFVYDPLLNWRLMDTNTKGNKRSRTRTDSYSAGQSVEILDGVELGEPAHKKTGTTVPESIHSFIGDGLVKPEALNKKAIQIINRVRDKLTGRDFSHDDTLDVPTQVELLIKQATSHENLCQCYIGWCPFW

inhibition at 1.25 µM [%] | SMILES | IC50 (nonlinear fit Origin 8.0) [nM] | inhibition percentage (quercetin 0.05 nmol/L) [%] | inhibition percentage (quercetin 0.5 nmol/L) [%] | inhibition percentage (quercetin 5 nmol/L) [%] | inhibition percentage (quercetin 50 nmol/L) [%] | inhibition percentage (quercetin 250 nmol/L) [%] | inhibition of mTORC1 phosphorylation of the substrate peptide (in words, electropherogram Fig. 1C) (quercetin 0.5 μM, 25℃) | inhibition percentage (quercetin 500 nmol/L) [%] | inhibition percentage (quercetin 5×10^3 nmol/L) [%] | inhibition percentage (quercetin 5×10^4 nmol/L) [%] | inhibition percentage (quercetin 5×10^5 nmol/L) [%]
– | O=c1c(O)c(-c2ccc(O)c(O)c2)oc2cc(O)cc(O)c12 [槲皮素] | 377 | 0 | 0 | 0 | 8 | 47 | 可以有效抑制 | 53 | 97 | 100 | 100
25 | O=c1c(O[C@@H]2O[C@H](CO)[C@H](O)[C@H](O)[C@H]2O)c(-c2ccc(O)c(O)c2)oc2cc(O)cc(O)c12 [金丝桃苷, reference compound] | – | – | – | – | – | – | – | – | – | – | –
25 | O=c1cc(-c2ccccc2)oc2cc(O)c(O)c(O)c12 [黄芩素, reference compound] | – | – | – | – | – | – | – | – | – | – | –
